Measured values from patent publication US20250074871A1, “PHENETHYLAMINES AND METHODS OF PREPARATION THEREOF” (priority 2022, published 2025).
Where two headings read alike, the source gives them in different places.

Columns and labels:
[1] = test system: hepatocyte; test: in vitro hepatocyte clearance, dog; format: in vitro ADME; details: Dog
Experimental: (§1) Additional experimentation was performed on compound 109. Table 6 summarizes, among other things, the anticipated hepatic clearance of compound 109 in various species, as specified in Table 6 and as determined by calculating the in vitro hepatocyte clearance over time and scaling such rate with such species' hepatocyte count and the anticipated liver blood flow rate in such species.

[2] = in vitro hepatocyte clearance, dog; format: in vitro ADME; details: for hepatocyte CLint / half-life: Dog hepatocytes; for hepatocyte CLint: read-out: In vitro Clint (μL/min/10^6 cells); for half-life: read-out: In vitro T1/2; for CLint scaled: dog, hepatocytes, read-out: Scale-up Clint
Experimental: as §1

[3] = target: T1, human ether-a-go-go-related gene (hERG) K+ channel (Homo sapiens, UniProt Q12809); test: Eurofins hERG Qube APC Assay; format: cell-based; details: for IC50 (hERG)/EC50 (5-HT2A) ratio: Table 4
T1 construct: Eurofins
Text: As used herein and unless otherwise specified, the term “hERG risk” refers to the risk of a compound potentially inhibiting the human ether-a-go-go-related gene (hERG) K^+ channel, thereby leading to QT prolongation.
As a result of, many compounds disclosed in Table 1 and Table 2 were screened for the potential of “hERG risk” using pharmacological assays (e.g. Eurofins™ hERG Qube APC Assay). […].

[4] = target: 5-HT1B (Homo sapiens, UniProt P28222); test: 5-HT receptor activity panel (Table 3); format: cell-based; details: Table 3
[5] = plasma and brain PK in rat; format: in vivo; details: for Kp: brain; for clearance: read-out: Cltot (converted); for half-life: read-out: T1/2 Vz (converted); for Vd: read-out: Vz
Text: (§2) Table 7a and Table 7b summarize, among other things, the observed plasma and Brain P K properties in animals, and the observed plasma and Brain P K properties predicted in humans, for compound 109 in Table 7a and compound 93 for Table 7b: […]

[6] = plasma and brain PK in mice; format: in vivo; details: mouse; for Kp: brain; for clearance: read-out: Cltot (converted); for half-life: read-out: T1/2 Vz (converted); for Vd: read-out: Vz
Text: as §2

[7] = target: 5-HT5A (Homo sapiens, UniProt P47898); test: 5-HT receptor activity panel (Table 3); format: cell-based; details: Table 3
[8] = target: 5-HT7 (Homo sapiens, UniProt P34969); test: 5-HT receptor activity panel (Table 3); format: cell-based
[9] = plasma and brain PK predicted in humans; details: Human (predicted); for Kp: brain; for clearance: read-out: Cltot (converted); for half-life: read-out: T1/2 Vz (converted); for Vd: read-out: Vz
Text: as §2

[10] = target: 5-HT1E (Homo sapiens, UniProt P28566); test: 5-HT receptor activity panel (Table 3); format: cell-based
[11] = plasma PK in dog; format: in vivo; details: for clearance / half-life / Vd: dog; for clearance: read-out: Cltot (converted); for half-life: read-out: T1/2 Vz (converted); for Vd: read-out: Vz
Text: as §2

[12] = test system: hepatocyte; test: in vitro hepatocyte clearance, human; format: in vitro ADME; details: Human
Experimental: as §1

[13] = in vitro hepatocyte clearance, human; format: in vitro ADME; details: Human hepatocytes; for hepatocyte CLint: read-out: In vitro Clint (μL/min/10^6 cells); for half-life: read-out: In vitro T1/2; for CLint scaled: read-out: Scale-up Clint
Experimental: as §1

[14] = test system: olfactory bulbectomized rats; test: locomotor/behavioral activity in olfactory bulbectomized rats; format: in vivo, rat; details: single intraperitoneal dose, FIG. 5
Experimental: (§3) Additional experimentation was also done on compound 109. Namely, an intraperitoneal dose of up to 30 mg/kg of compound 109 and various reference compounds were delivered into healthy rat subjects and surgery induced abnormal rat subjects (olfactory bulbectomized rats). […] Without being bound by theory, it is believed that these observations are a result of long lasting neuroplasticity effects of compound 109 on surgery induced abnormal rat subjects. FIG. 5 summarizes the results of this experiment. Using psilocybin as a comparative psychedelic, the results of this experiment support the notion that compound 109 provides sustainable acute antidepressant effects. Note that “VEH” refers to vehicle, and “PSIL” refers to psilocybin, in FIG. 5.

[15] = test system: α 1a, α 2a, Kappa (KOP), μ (MOP), 5-HT transporter (SERT); test: follow up functional assays on SafetyScreen44 hits
Experimental: Various compounds disclosed herein were subjected to an in vitro SafetyScreen44™ panel for identifying off-target activity. Compounds of interest that are identified in the panel are then tested in follow up functional assays to identify if such compounds have a significant off-target risk. […] It is predicted that other compounds share similar characteristics with compound 109 and also lack of the off-target activity.

[16] = test system: healthy rat subjects; test: locomotor activity test in healthy rats; format: in vivo; details: intraperitoneal dose of up to 30 mg/kg
Experimental: as §3

[17] = read-out: Brain Plasma AUC Ratio

5-HT7, sequence (P34969 whole entry, species assumed): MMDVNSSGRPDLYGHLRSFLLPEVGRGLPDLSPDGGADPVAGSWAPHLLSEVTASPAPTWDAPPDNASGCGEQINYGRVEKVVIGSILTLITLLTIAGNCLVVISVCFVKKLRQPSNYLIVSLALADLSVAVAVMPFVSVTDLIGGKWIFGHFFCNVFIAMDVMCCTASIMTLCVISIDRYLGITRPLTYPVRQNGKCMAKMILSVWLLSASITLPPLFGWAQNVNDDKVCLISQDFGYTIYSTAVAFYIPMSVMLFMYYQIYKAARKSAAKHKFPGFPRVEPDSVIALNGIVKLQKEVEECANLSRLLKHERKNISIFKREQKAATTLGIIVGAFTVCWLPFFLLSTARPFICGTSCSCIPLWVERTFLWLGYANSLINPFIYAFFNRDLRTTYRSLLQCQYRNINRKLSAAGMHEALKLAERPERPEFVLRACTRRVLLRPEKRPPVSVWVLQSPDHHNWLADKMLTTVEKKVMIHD
5-HT5A, sequence (P47898 whole entry, species assumed): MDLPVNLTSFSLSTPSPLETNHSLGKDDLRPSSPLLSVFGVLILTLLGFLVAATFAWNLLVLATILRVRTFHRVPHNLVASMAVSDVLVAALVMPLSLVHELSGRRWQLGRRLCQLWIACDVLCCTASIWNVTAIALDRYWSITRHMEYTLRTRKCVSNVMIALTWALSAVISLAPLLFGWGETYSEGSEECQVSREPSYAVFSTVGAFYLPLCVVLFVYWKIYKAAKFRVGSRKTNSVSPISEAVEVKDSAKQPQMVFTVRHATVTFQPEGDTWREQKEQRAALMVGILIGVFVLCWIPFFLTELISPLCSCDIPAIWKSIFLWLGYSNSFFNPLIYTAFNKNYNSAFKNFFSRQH
T1 sequence (Q12809 whole entry): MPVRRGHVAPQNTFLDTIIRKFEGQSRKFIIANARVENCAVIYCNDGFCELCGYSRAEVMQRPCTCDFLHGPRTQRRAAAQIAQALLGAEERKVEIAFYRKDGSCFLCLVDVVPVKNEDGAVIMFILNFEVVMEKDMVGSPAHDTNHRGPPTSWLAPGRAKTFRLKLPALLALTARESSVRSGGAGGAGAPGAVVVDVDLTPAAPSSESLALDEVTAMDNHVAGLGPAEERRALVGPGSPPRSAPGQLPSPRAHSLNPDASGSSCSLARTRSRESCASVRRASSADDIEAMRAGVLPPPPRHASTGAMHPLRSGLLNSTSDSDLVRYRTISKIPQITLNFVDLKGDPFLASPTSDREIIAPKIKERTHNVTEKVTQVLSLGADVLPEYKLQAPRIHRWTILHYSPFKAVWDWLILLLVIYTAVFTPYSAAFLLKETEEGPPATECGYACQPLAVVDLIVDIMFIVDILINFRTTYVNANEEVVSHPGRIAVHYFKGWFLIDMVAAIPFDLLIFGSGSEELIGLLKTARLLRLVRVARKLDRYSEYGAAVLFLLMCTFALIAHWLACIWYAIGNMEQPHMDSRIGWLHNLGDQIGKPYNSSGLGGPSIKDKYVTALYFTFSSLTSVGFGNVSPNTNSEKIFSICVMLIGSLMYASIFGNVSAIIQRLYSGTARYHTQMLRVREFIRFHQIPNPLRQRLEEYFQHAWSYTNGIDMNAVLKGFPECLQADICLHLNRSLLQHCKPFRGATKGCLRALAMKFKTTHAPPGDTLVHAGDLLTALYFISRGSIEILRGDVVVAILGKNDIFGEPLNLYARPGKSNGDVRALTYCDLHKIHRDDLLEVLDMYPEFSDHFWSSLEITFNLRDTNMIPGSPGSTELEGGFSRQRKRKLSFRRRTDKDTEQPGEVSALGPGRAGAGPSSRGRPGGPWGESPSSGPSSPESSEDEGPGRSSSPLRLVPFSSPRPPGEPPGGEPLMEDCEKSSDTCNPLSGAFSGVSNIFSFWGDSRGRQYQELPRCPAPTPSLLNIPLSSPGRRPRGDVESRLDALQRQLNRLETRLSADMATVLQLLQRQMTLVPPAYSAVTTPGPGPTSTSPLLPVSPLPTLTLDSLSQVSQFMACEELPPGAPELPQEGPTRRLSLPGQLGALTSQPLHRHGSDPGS
5-HT1E, sequence (P28566 whole entry, species assumed): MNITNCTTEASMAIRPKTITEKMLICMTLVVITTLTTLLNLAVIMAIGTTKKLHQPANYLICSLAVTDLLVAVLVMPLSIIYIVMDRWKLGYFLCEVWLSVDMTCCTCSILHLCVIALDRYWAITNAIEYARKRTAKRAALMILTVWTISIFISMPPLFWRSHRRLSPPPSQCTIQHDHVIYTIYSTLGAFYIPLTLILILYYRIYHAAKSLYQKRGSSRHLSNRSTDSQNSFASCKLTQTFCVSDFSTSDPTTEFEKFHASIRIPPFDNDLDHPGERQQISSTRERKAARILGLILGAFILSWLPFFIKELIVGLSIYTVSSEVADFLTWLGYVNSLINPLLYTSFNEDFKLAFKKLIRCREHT
5-HT1B, sequence (P28222 whole entry, species assumed): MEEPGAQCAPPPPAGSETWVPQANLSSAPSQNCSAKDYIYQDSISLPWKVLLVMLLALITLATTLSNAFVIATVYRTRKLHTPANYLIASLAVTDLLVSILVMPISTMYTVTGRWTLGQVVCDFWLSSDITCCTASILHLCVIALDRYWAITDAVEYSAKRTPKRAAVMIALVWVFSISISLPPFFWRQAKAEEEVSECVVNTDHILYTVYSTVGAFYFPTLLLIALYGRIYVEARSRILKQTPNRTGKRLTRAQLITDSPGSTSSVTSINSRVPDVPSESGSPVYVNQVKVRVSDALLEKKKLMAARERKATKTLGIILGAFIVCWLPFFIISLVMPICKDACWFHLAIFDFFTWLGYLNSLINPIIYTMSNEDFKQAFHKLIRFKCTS

COc1cc(C(F)(F)F)ccc1CCNCc1ccccc1O [Cpd #93]
Predicted hepatic CL [1]: 30.49 mL/min/kg
hepatocyte CLint [2]: 337 µL/min/1e6 cells
half-life [2]: 4.11 min
CLint scaled [2]: 2320 mL/min/kg
IC50 [3]: 620 nM
IC50 (hERG)/EC50 (5-HT2A) ratio [3]: 517
5-HT1B EC50, nM [4]: Not active
Kp ([5]; rat, read-out: Brain/plasma Ratio): 19.6
clearance ([5]; rat, plasma): 127 mL/min/kg
half-life ([5]; rat, plasma): 82.8 min
Vd ([5]; rat, plasma): 15.2 L/kg
Kp ([6]; read-out: Brain/plasma Ratio): 15.6
clearance ([6]; plasma): 197 mL/min/kg
half-life ([6]; plasma): 54 min
Vd ([6]; plasma): 15.1 L/kg
5-HT5A EC50, nM [7]: Not active
EC50 [8]: 0.5 nM
5-HT7 Eff, % ([8]; Table 3): −12%
Kp ([9]; read-out: Brain/plasma Ratio): 9.55
clearance ([9]; plasma): 37.9 mL/min/kg
half-life ([9]; plasma): 117 min
Vd ([9]; plasma): 6.39 L/kg
EC50 [10]: 70.1 µM
5-HT1E Eff, % ([10]; Table 3): 211%
clearance [11]: 53.1 mL/min/kg
half-life [11]: 99.6 min
Vd [11]: 7.7 L/kg
Predicted hepatic CL [12]: 18.03 mL/min/kg
hepatocyte CLint [13]: 54.8 µL/min/1e6 cells
half-life [13]: 25.3 min
CLint scaled [13]: 140 mL/min/kg

CSc1ccccc1CNCCc1ccc(C#N)cc1O [Cpd #109]
Hepatic Extraction Ratio (E) [1]: 0.98
Predicted hepatic CL [1]: 30.22 mL/min/kg
hepatocyte CLint [2]: 199 µL/min/1e6 cells
half-life [2]: 6.96 min
CLint scaled [2]: 1370 mL/min/kg
IC50 [3]: 2900 nM
IC50 (hERG)/EC50 (5-HT2A) ratio [3]: 604
5-HT1B EC50, nM [4]: Not active
plasma t1/2 ([5]; healthy rat subjects (text b114)): less than an hour
bioavailability ([5]; plasma, rat, IM, read-out: IM f (%)): 92.8%
Kp ([5]; rat, read-out: Brain Plasma AUC Ratio): 2.18
clearance ([5]; rat, plasma): 53.4 mL/min/kg
half-life ([5]; rat, plasma): 126 min
Vd ([5]; rat, plasma): 9.37 L/kg
Kp [6, 17]: 8.39
bioavailability ([6]; plasma, IM, read-out: IM f (%)): 144%
clearance ([6]; plasma): 286 mL/min/kg
half-life ([6]; plasma): 36 min
Vd ([6]; plasma): 14 L/kg
5-HT5A Eff, % [7]: −133%
EC50 ([7]; read-out: 5-HT5A EC50): 12.3 µM
inhibition of abnormal behavioral activity [14]: significant and long lasting inhibition of abnormal behavioral activity
5-HT7 EC50, nM ([8]; Table 3): Not active
Kp [9, 17]: 2.14
bioavailability ([9]; plasma, IM, read-out: IM f (%)): 100%
clearance ([9]; plasma): 16.2 mL/min/kg
half-life ([9]; plasma): 120 min
Vd ([9]; plasma): 2.78 L/kg
5-HT1E Eff, % ([10]; Table 3): 12%
EC50 ([10]; Table 3, read-out: 5-HT1E EC50): 0.814 µM
Follow up studies (off-target activity) [15]: No significant
Follow up studies (off-target activity) ([15]; listed as compound 109): does not possess significant off-target activity
effect on normal locomotor activity [16]: no suggestion that an intraperitoneal dose of up to 30 mg/kg of such compound affects the normal locomotor activity
bioavailability ([11]; Dog, IM, read-out: IM f (%)): 120%
clearance [11]: 39.7 mL/min/kg
half-life [11]: 78 min
Vd [11]: 4.33 L/kg
Hepatic Extraction Ratio (E) [12]: 0.99
Predicted hepatic CL [12]: 20.43 mL/min/kg
hepatocyte CLint [13]: 609 µL/min/1e6 cells
half-life [13]: 2.28 min
CLint scaled [13]: 1550 mL/min/kg
